The text below walks through data of patent US7087648B1, “Methods for modulating macrophage proliferation using polyamine analogs” (The Regents of the University of California, priority 1997, dated 2006).

The test system of assay [1] is CD14^+/PCNA^+ peripheral blood macrophage. As to the kind of experiment: In vitro CD14/PCNA staining (FACSCAN) of PBMC from AIDS dementia patients cultured five days with agent. The class given is cell-based, human. To be noted: one patient with AIDS dementia, 0 drug: 35/5000.
Assay [2] has the same test system. Described as above. The class given is cell-based, human. To be noted: for effect on macrophage proliferation: blood of one patient with AIDS dementia, Table 2; for CD14^+, PCNA^+ / TOTAL CD14/PCNA: one patient with AIDS dementia; for CD14^+, PCNA^+: 0 drug: 64/5000; for TOTAL CD14/PCNA: 0 drug: 388; for inhibition and/or killing of blood PCNA^+/CD14^+ cells: summary of the data shown; for CD14^+/PCNA^+ / CD14^+/PCNA^− / total CD14: HIV dementia patient five; for CD14^+/PCNA^+: 0 drug: 74; for CD14^+/PCNA^−: 0 drug: 472; for total CD14: 0 drug: 546. On the procedure:
We had previously separated peripheral blood monocytes on Ficoll. […] We then used Percoll gradient separation, which allows for denser cells to be captured. A two-step gradient was prepared in 15 mL conical tubes: bottom layer of 1.087 density Percoll, overlaid with 1.077 density. 1.5 mL whole heparinised blood was mixed with an equal volume of isotonic saline. This blood/saline was layered over the gradient and centrifuged. Cells from the 1.077 and 1.087 interfaces were collected, combined, and washed in 5 volumes of RPMI 1640. […] All further experiments were performed using 1.087 gradient.
Five×10^5 PBMC's isolated through a 1.087 g/cc Percoll/saline gradient were exposed to varied concentrations of agent after baseline CD14/PCNA staining was performed. The cells were cultured at 5×10^5 cells in RPM1-1640/10% fetal calf serum in a polypropylene tube (Falcon) at 37° C. for five days. After five days CD14/PCNA staining was performed on control and agent-treated cultures. FACSCAN analysis of PCNA-positive cells in control cultures was compared with agent-treated cultures and the percentage of control PCNA/CD14 cells was calculated. The results of such an experiment in which the effect of polyamine analog DEHOP (SunPharm; Florida) on proliferating macrophages (as detected by PCNA) from the blood of four patients with AIDS dementia are shown in FIG. 1A (with underlying data provided in Table 3). […] A comparison of the inhibitory effect of DEHOP and cyclosphosphamide, another anti-proliferative agent, was performed in vitro using the blood of one of these patients (“CB”).

The subject of assay [3] is PCNA/CD14 cells. The assay can be described thus: PCNA expression of peripheral macrophages (CD14 cells) from patients with AD, five days culture with agent. The class given is cell-based, human. To be noted: FIG. 3. On the procedure: We had previously separated peripheral blood monocytes on Ficoll. […] We then used Percoll gradient separation, which allows for denser cells to be captured. A two-step gradient was prepared in 15 mL conical tubes: bottom layer of 1.087 density Percoll, overlaid with 1.077 density. 1.5 mL whole heparinised blood was mixed with an equal volume of isotonic saline. This blood/saline was layered over the gradient and centrifuged. Cells from the 1.077 and 1.087 interfaces were collected combined, and washed in 5 volumes of RPMI 1640.
Five×10^5 PBMC's isolated through a 1.087 g/cc Percoll/saline gradient were exposed to varied concentrations of agent after baseline CD14/PCNA staining was performed as described in Example 3. The cells were cultured at 5×1O^5 cells in RPM1-1640/10% fetal calf serum in a polypropylene tube (Falcon) at 37° C. for five days. After five days CDI 14/PCNA staining was performed on control and agent-treated cultures. FACSCAN analysis of PCNA-positive cells in control cultures was compared with agent-treated cultures and percentage of control PCNA/CD14 cells was calculated. Two polyamine analogs, DENOP (SunPharm; Florida) and SL-11037 were tested.

Assay [4] concerns human brain tumor cell lines. To be noted: cited from earlier work.
The test system of assay [5] is PCNA^+ macrophage. As to the kind of experiment: Inhibition of PCNA^+ macrophage detection, peripheral blood of HIV^+ sarcoid patient. The class given is cell-based, human. To be noted: 60% of input CD14 cells PCNA^+, 96 hr after drug exposure and culture, FIG. 5. How it is done:
Five×10^5 PBMC's isolated through a 1.087 g/cc Percoll/saline gradient were exposed to varied concentrations of agent after baseline CD14/PCNA staining was performed. […] FACSCAN analysis of PCNA-positive cells in control cultures was compared with agent-treated cultures and the percentage of control PCNA/CD14 cells was calculated.

In assay [6] the test system is spermidine-spermine N1-acetyltransferase (SSAT). To be noted: human melanoma cells; cited from earlier work.

In the case of `CCNCCCNC[C@@H]1C[C@@H]1CNCCCNCC.Cl.Cl.Cl.Cl` [SL-11037, N-ethyl-N′-(2-(3′-ethylamino-propylaminomethyl)-cis-cyclopropylmethyl)-propane 1,3-diamine tetrahydrochloride], the figures for the “CD14^+, CD69^+” value in assay [1] (2 μM), in assay [1] (10 μM) and in assay [1] (50 μM) were 46/ NO. OF CELLS/5,000, 49/ NO. OF CELLS/5,000 and 33/ NO. OF CELLS/5,000, respectively. Further, in assay [2], the “effect on macrophage proliferation” value is given as “showed inhibitory effects”. For the same molecule, the “CD14^+, PCNA^+” value in assay [2] (2 μM) was 49/ NO. OF CELLS/5,000; in assay [2] (10 μM) it was 32/ NO. OF CELLS/5,000; in assay [2] (50 μM), 11/ NO. OF CELLS/5,000. Further, the “TOTAL CD14/PCNA” value is given as 276 NO. OF CELLS/5,000 in assay [2] (2 μM), 116 NO. OF CELLS/5,000 in assay [2] (10 μM) and 79 NO. OF CELLS/5,000 in assay [2] (50 μM). The “inhibition and/or killing of blood PCNA^+/CD14^+ cells” value (“inhibition and/or killing” below) in assay [2] is on record as “potent inhibition and/or killing”. For the same molecule, the “percentage of proliferating macrophages (PCNA/CD14 cells)” value in assay [3] was “significantly reduced the percentage of proliferating macrophages”.
Regarding `CCNCCCCNCCCCNCCCCNCCCCNCC` [BE-4444, 1,19-bis(ethylamino)-5,10,15-triazanonadecane], the “growth, survival, and cell cycle progression” value in assay [4] is “directly affects growth, survival, and cell cycle progression”. Further, the “killing of PCNA^+/CD14^+ cells” value in assay [2] (FIG. 1B) is reported as “potent killing”. Besides, the “inhibition and/or killing” value in assay [2] is on record as “potent inhibition and/or killing”.
In the case of `CCNCCCNC[C@@H]1CC[C@H]1CNCCCNCC.Cl.Cl.Cl.Cl` (relative stereo) [SL-11038, N-ethyl-N′-(2-(3′-ethylamino-propylaminomethyl)-trans-cyclobutylmethyl)-propane 1; 3-diamine tetrahydrochloride], the “CD14^+, CD69^+” value in assay [1] (2 μM) is given as 32/ NO. OF CELLS/5,000; in assay [1] (10 μM) it was 32/ NO. OF CELLS/5,000; in assay [1] (50 μM), 26/ NO. OF CELLS/5,000. For the same molecule, in assay [2], the “effect on macrophage proliferation” value was “showed inhibitory effects”. For the same molecule, the “CD14^+, PCNA^+” value in assay [2] (2 μM) was 104/ NO. OF CELLS/5,000; in assay [2] (10 μM), 36/ NO. OF CELLS/5,000; in assay [2] (50 μM), 24/ NO. OF CELLS/5,000. Moreover, the figures for the “TOTAL CD14/PCNA” value in assay [2] (2 μM), in assay [2] (10 μM) and in assay [2] (50 μM) were 356 NO. OF CELLS/5,000, 205 NO. OF CELLS/5,000 and 104 NO. OF CELLS/5,000, respectively. Besides, the “inhibition and/or killing” value in assay [2] was “potent inhibition and/or killing”.
With `CCNCCCNCCCNCCCNCC` [DENOP, diethyl-norspermine], the “CD14^+, CD69^+” value in assay [1] (2 μM) was 32/ NO. OF CELLS/5,000; in assay [1] (10 μM) it was 23/ NO. OF CELLS/5,000; in assay [1] (50 μM), 32/ NO. OF CELLS/5,000. Also, in assay [2], the “effect on macrophage proliferation” value was “showed inhibitory effects”. Besides, the “CD14^+, PCNA^+” value is recorded as 34/ NO. OF CELLS/5,000 in assay [2] (2 μM), 23/ NO. OF CELLS/5,000 in assay [2] (10 μM) and 19/ NO. OF CELLS/5,000 in assay [2] (50 μM). Further, the “TOTAL CD14/PCNA” value in assay [2] (2 μM) is 149 NO. OF CELLS/5,000; in assay [2] (10 μM) it was 50 NO. OF CELLS/5,000; in assay [2] (50 μM), 43 NO. OF CELLS/5,000. Besides, in assay [2], the “inhibition and/or killing” value is reported as “potent inhibition and/or killing”. Further, the “percentage of proliferating macrophages (PCNA/CD14 cells)” value in assay [3] is “significantly reduced the percentage of proliferating macrophages”.
With `CCNCCCNC/C=C\CNCCCNCC.Cl.Cl.Cl.Cl` [SL-11047, N,N′-bis(3-ethylaminopropyl)-cis-but-2-ene-1,4-diamine tetrahydrochloride], the “inhibition of PCNA^+ macrophage detection” value in assay [5] is on record as “potent inhibitors”. For the same molecule, the “PCNA^+/CD14 cell survival” value in assay [2] (FIG. 6, averages of several (N) experiments) is “decrease”. Also, the “inhibition and/or killing” value in assay [2] was “potent inhibition and/or killing”.
On to `CCNCCCNCCCNCCCNCC` [DENSPM, 1,1 1-diethylnorspermine], for which, in assay [6], the “increase in immunodetectable SSAT protein” value is listed as 300 fold and the “increase of SSAT mRNA levels” value is listed as “up to 20 fold”.
On to `CCNCCCNC[C@@H]1C[C@H]1CNCCCNCC.Cl.Cl.Cl.Cl` (relative stereo) [SL-11044, N-ethyl-N′-(2-(3′-ethylamino-propylaminomethyl)-trans-cyclopropylmethyl)-propane 1,3-diamine tetrahydrochloride], for which the “inhibition of PCNA^+ macrophage detection” value in assay [5] is reported as “potent inhibitors”. Moreover, the “inhibition and/or killing” value in assay [2] is reported as “potent inhibition and/or killing”.
For `NCCCNCCCCNCCCN` [spermine], in assay [6], the “increase in immunodetectable SSAT protein” value is reported as roughly 7 fold and the “increase of SSAT mRNA levels” value was roughly 3 fold.
As to `O=P1(N(CCCl)CCCl)NCCCO1` (stereo not drawn) [Cyclophosphamide, reference compound], the “CD14^+/PCNA^+” value in assay [2] (5 μg/ml) is on record as 70 #cells/10,000 PBMC; in assay [2] (0.005 (μg/ml)) it was 71 #cells/10,000 PBMC; in assay [2] (0.05 (μg/ml)) it was 99 #cells/10,000 PBMC; in assay [2] (0.5 (μg/ml)) it was 49 #cells/10,000 PBMC. Further, the “CD14^+/PCNA^−” value in assay [2] (5 μg/ml) is recorded as 272 #cells/10,000 PBMC; in assay [2] (0.005 (μg/ml)), 295 #cells/10,000 PBMC; in assay [2] (0.05 (μg/ml)) it was 455 #cells/10,000 PBMC; in assay [2] (0.5 (μg/ml)) it was 390 #cells/10,000 PBMC. The “total CD14” value is 342 #cells/10,000 PBMC in assay [2] (5 μg/ml), 366 #cells/10,000 PBMC in assay [2] (0.005 (μg/ml)), 554 #cells/10,000 PBMC in assay [2] (0.05 (μg/ml)) and 439 #cells/10,000 PBMC in assay [2] (0.5 (μg/ml)). Also, in assay [2] (blood of patient five), the “in vitro toxicity in this assay system” value was “lack of in vitro toxicity”.
